Results reported in patent US11510921B2, “Bromocriptine formulations” (VEROSCIENCE LLC, priority 2017, dated 2022).
Structures can show the parent of a compound that is named as a salt.

Key:
[1] = Browning (degradation) reaction of bromocriptine with excipients in heated aqueous suspension; format: physicochemical
Description: A series of reaction vessels were prepared containing various combinations of bromocriptine mesylate, Mg stearate, and/or lactose, with or without citric acid, in aqueous suspension and reacted at 60° C. for 55 hours. Additionally, samples were prepared wherein the Mg stearate was replaced/substituted with stearic acid.
2 ml of distilled water was added to the samples, which were then mixed by vortexing, placed in a reaction chamber with thermostat set at 50° C. for 24 hours, then (after 24 hours) set at 60° C. The color change of the sample solutions/mixtures were evaluated by comparing the color of the solution with a Standardized Color Chart; the color intensities of the sample solutions/mixtures (from clear to dark brown) was graded at specified time points from time 0 to time 55 hours (see FIG. 2). In FIG. 2, a number “0” indicates a clear solution or white suspension; a number “40” represents the darkest solution/suspension observed.

[2] = Water solubility of formulations versus traditional formulation (Table 11); settings: 20 C
Description: (§1) Effect of constituents on the stability and solubility of bromocriptine formulations. […] The stability and solubility of the formulations are assessed versus a traditional formulation of bromocriptine mesylate as described in Table 1.

[3] = Heat and humidity stability of formulations versus traditional formulation (Table 11); settings: 40 C and 75% RH; short chain saccharide substituted for lactose
Description: as §1

Structure (SMILES)	bromocriptine degradation and browning reaction ([1]; addition of citric acid and substitution of Mg stearate with stearic acid)	bromocriptine degradation and browning reaction ([1]; addition of citric acid, Mg stearate alone or Mg stearate and lactose)	browning reaction ([1]; bromocriptine exposed to both Mg stearate and lactose)	browning reaction ([1]; bromocriptine with Mg stearate in aqueous environment, absence of lactose)	bromocriptine degradation ([1]; substitution of Mg stearate with solid castor oil, compared with stearic acid)	bromocriptine degradation and browning reaction ([1]; substitution of Mg stearate with stearic acid, with or without lactose)	Relative Improvement in Water Solubility Versus Traditional Bromocriptine Mesylate Pharmaceutical Formulation ([2]; fatty acid or triglyceride + short chain saccharide)	Relative Improvement in Water Solubility Versus Traditional Bromocriptine Mesylate Pharmaceutical Formulation ([2]; fatty acid or triglyceride substituted for Mg stearate)	Relative Improvement in Water Solubility Versus Traditional Bromocriptine Mesylate Pharmaceutical Formulation ([2]; short chain saccharide substituted for lactose)	Relative Improvement In Heat & Humidity Stability Versus Traditional Bromocriptine Mesylate Pharmaceutical Formulation [3]
CC(C)C[C@H]1C(=O)N2CCC[C@H]2[C@]2(O)O[C@](NC(=O)[C@@H]3C=C4c5cccc6[nH]c(Br)c(c56)C[C@H]4N(C)C3)(C(C)C)C(=O)N12 [bromocriptine, (5′α)-2-bromo-12′-hydroxy-2′-(1-methylethyl)-5′-(2-methylpropyl)-ergotaman-3′,6′,18-trione]	attenuated bromocriptine degradation and the browning reaction by the greatest magnitude	attenuated bromocriptine degradation and the browning reaction	A more intense browning reaction occurred	a browning product was produced	attenuated bromocriptine degradation to an even greater extent	attenuated bromocriptine degradation and the browning reaction				
CC(C)C[C@H]1C(=O)N2CCC[C@H]2[C@]2(O)O[C@](NC(=O)[C@@H]3C=C4c5cccc6[nH]c(Br)c(c56)C[C@H]4N(C)C3)(C(C)C)C(=O)N12 [Bromocriptine Mesylate, (5′α)-2-bromo-12′-hydroxy-2′-(1-methylethyl)-5′-(2-methylpropyl)-ergotaman-3′,6′,18-trione monomethanesulfonate salt]							−	−	−	+
